Experimental findings from US20210113518A1, “Composition And Use Thereof Against Drugs Induced Phototoxicity” (AC BIOSCIENCE SA, priority 2018, published 2021) are described below.

Molecules are shown by their SMILES. Values after ≈ are worked out from the molar mass of the structure shown.

Assay type in all cases: cell-based
Assay [1] concerns human neutrophils. The experiment in a line: Neutrophils degranulation assessed by myeloperoxidase (MPO) release, fMLP stimulation, MPO enzyme immunoassay. The conditions noted are these: fMLP 45 minutes at 37° C. How it is done: Neutrophils were stimulated with formyl-methionyl-leucyl-phenylalanine for 45 minutes at 37° C. MPO released from neutrophils were assayed by using an MPO enzyme immunoassay. [table]

The next assay relates to NIH-3T3 fibroblasts. The experiment in a line: Chlorpromazine (CPZ)-induced cell phototoxicity under UVA, protective effect. The text has this: Chlorpromazine (CPZ) is a neuroleptic drug widely used in medicine because of its tranquilizing and antipsychotic properties. CPZ often causes side effects including cutaneous photosensitization and ocular damage.
Another assay relates to Balb/c 3T3 fibroblasts. Put plainly: Norfloxacin 3T3 phototoxicity test with or without DHQ treatment (Neutral Red uptake). The conditions noted are these: for Photoprotective effect against norfloxacin phototoxicity: increasing concentrations in treatment medium, UVA. How it is done: The phototoprotective potential of Dihydroquercetin was assessed using a method based on Norfloxacin phototoxicity test on fibroblasts […]. […] The study was aimed at evaluating the photoprotective potential of one test item, dihydroquercetin, against the deleterious effects of UVA exposure in presence of phototoxic substances such as Norfloxacin or chlorpromazin. Briefly, Balb/c 3T3 fibroblasts were maintained in culture for 48 h for formation of monolayers. Norfloxacin 3T3 phototoxicity test was performed in presence or absence of DHQ treatment in different conditions. After another 24 h incubation period, cell viability was determined by Neutral Red uptake. For each condition, cell viability was expressed as percentage relative to untreated solvent controls. Then the dose-response curves (at the EC50 level) obtained for Norfloxacin with or without DHQ treatment was compared to assess DHQ photoprotective potential.

Assay [2] concerns human neutrophils. Put plainly: Polymorphonuclear neutrophils oxidative burst, ROS production by chemiluminescence (PMA activation). The conditions noted are these: neutrophils primed with TNF-α, activation by 100 ng/ml PMA; luminol chemiluminescence; FIG. 5. The method, then:
ROS production is measured using a chemiluminescence standard procedure: briefly, one hundred microliters of human neutrophils (4×10^6/mL) were primed with TNF-α at 37° C. for 25 minutes. 100 μL luminol (1 μM final concentration) and HRP (62.5 U/mL final concentration) in HBSS were added, and 150-μL aliquots were transferred to a prewarmed 96-well luminometer plate. Light emission was recorded by a Berthold MicroLumat Plus luminometer (Berthold Technologies, Hartfordshire, United Kingdom) (data output is in relative light units per second)

As for `CC(C)=CCC[C@](C)(O)C1CC=C(C)CC1` (stereo partly shown) [Bisabolol], the MPO release was determined as 810 U/mL in the assay with human neutrophils [1] (Bisabolol 20 μM), 500 U/mL in the assay with human neutrophils [1] (Bisabolol 40 μM), 250 U/mL in the assay with human neutrophils [1] (Bisabolol 100 μM) and 248 U/mL in the assay on human neutrophils [1] (Bisabolol 200 μM).
Broadly, the IC50 is the concentration that inhibits the measured activity by half. A low value points to inhibition by little substance. In turn, `CN(C)CCCN1c2ccccc2Sc2ccc(Cl)cc21` [CPZ, Chlorpromazine, reference compound] came in with an IC50 in the assay with NIH-3T3 fibroblasts (Mus musculus, NIH3T3, light or radiation study, control experiment (no treatment), UVA) of 0.33 µg/mL (≈ 1.03 µM).
As for `O=C1c2c(O)cc(O)cc2O[C@H](c2ccc(O)c(O)c2)[C@H]1O` [DHQ, Dihydroquercetin], in the assay with Balb/c 3T3 fibroblasts, the “Photoprotective effect against norfloxacin phototoxicity” value was “Dose-dependent photoprotective effect”. In the assay with NIH-3T3 fibroblasts (NIH-3T3 fibroblasts, FIG. 4), the “Protection against phototoxicity induced by chlorpromazine+UVA” value is on record as “efficiently protects”. The “Effect on reactive oxygen species (ROS) production” value in the assay with human neutrophils [2] is reported as “Inhibitory effect”.
Consider `CCn1cc(C(=O)O)c(=O)c2cc(F)c(N3CCNCC3)cc21` [NFX, norfloxacin], for which the EC50 with Balb/c 3T3 fibroblasts (Mus musculus, BALB/c3T3, light or radiation study, No DHQ treatment, UVA exposure, read-out: NFX EC 50) is 55 µg/mL (≈ 172 µM).
Regarding `Nc1ccc(C(=O)O)cc1` [PABA, para-aminobenzoic acid], the “Photoprotective effect against norfloxacin phototoxicity” value in the assay with Balb/c 3T3 fibroblasts is recorded as “no effect”.
